Reference: US20120202756A1, “USE OF PRODRUGS TO AVOID GI MEDIATED ADVERSE EVENTS” (priority 2009, published 2012)
In brackets after ≈: the same amount, converted by molar mass. Read-outs that look alike come from different tables or passages of the source.

Key:
[1] = tested on: Fusobacterium necrophorum; assay: MIC agar dilution; format: cell-based; conditions: clinical isolate
[2] = tested on: Peptostreptococcus magnus; assay: MIC agar dilution; format: cell-based; conditions: Finegoldia magna; clinical isolate
[3] = tested on: Bacteroides thetaiotamicron; assay: MIC agar dilution; format: cell-based
Campylobacter jejuni = assay: MIC agar dilution
Prevotella denticola = assay: MIC agar dilution; format: cell-based; conditions: clinical isolate
Propionibacterium acnes = assay: MIC agar dilution
Bifidobacterium dentium = assay: MIC agar dilution; format: cell-based; conditions: NCTC11816
Bacteroides fragilis = assay: MIC agar dilution
[4] = tested on: Peptostreptococcus micros; assay: MIC agar dilution; format: cell-based; conditions: Parvimonas micra; clinical isolate
Helicobacter pylori = assay: MIC agar dilution
Veillonella parvula = assay: MIC agar dilution; format: cell-based; conditions: NCTC11810
Eggerthella lenta = assay: MIC agar dilution; format: cell-based; conditions: ATCC43055, ATCC 43055
[5] = tested on: Porphyromonas endodontalis; assay: MIC agar dilution; format: cell-based; conditions: clinical isolate
Clostridium perfringens = assay: microbe, parasite or virus in culture; format: cell-based
Clostridium sordellii = assay: MIC agar dilution; format: cell-based; conditions: Paraclostridium sordellii, NCTC13356; NCTC 13356
[6] = tested on: Porphyromonas assacharolyticus; assay: MIC agar dilution; format: cell-based; conditions: clinical isolate
Prevotella bivia = assay: MIC agar dilution; format: cell-based; conditions: ATCC29303, ATCC 29303
Clostridium bifermentans = assay: MIC agar dilution; format: cell-based; conditions: Paraclostridium bifermentans, ATCC638
Clostridium difficile = assay: MIC agar dilution; format: cell-based; conditions: Clostridioides difficile
[7] = Bioavailability of metronidazole from its prodrugs in the rat; conditions: male, Sprague Dawley, rat, in vivo, po
Protocol: In order to confirm successful absorption and subsequent hydrolysis of these metronidazole prodrugs, a comparative bioavailability study was undertaken in the rat Methods—Three groups of five male Sprague Dawley rats were orally dosed with either metronidazole itself or its succinyl valine or glutaryl para-amino benzoic acid ester prodrugs. Serial tail vein blood samples were subsequently collected via an indwelling cannuala into EDTA tubes containing a stabilising cocktail (including 6 mg/mL NaF) to prevent post collection enzymic hydrolysis of the prodrug. Separated plasma samples were subjected to bioanalysis for both the prodrugs and metronidazole itself using a qualified LC/MS-MS bioanalytical method.

Veillonella spp. = assay: MIC agar dilution; format: cell-based; conditions: clinical isolate
Bifidobacterium longum = assay: MIC agar dilution; format: cell-based; conditions: NCTC11818
Clostridium novyi = assay: MIC agar dilution; format: cell-based; conditions: ATCC19402
Veillonella atypical = assay: MIC agar dilution; format: cell-based; conditions: NCTC11830
[8] = tested on: Peptostreptococcus anaerobius; assay: MIC agar dilution; format: cell-based; conditions: NCTC11460
Campylobacter coli = assay: MIC agar dilution
Clostridium sporogenes = assay: MIC agar dilution; format: cell-based; conditions: ATCC3584, ATCC 3584
[9] = tested on: Bifidobacterium adolescentis; assay: MIC agar dilution; format: cell-based; conditions: NCTC11814
[10] = Stability in simulated intestinal juice (FeSSIF); format: in vitro ADME; conditions: FeSSIF pH 5.0, pancreatin 1%
Protocol: (§1) To avoid direct interaction between the active drug and the gut microfloral population, the prodrug should not undergo premature chemical or enzymic cleavage back to the parent dug while within the gut lumen. To confirm this the prodrugs were incubated with USP SGF (simulated gastric fluid), FeSSIF (fed state simulated intestinal fluid) and FaSSIF (fasted state simulated intestinal fluid) and remaining prodrug and any generated active drug assayed by use of a qualified LC-MS/MS analytical method.
Pancreatin was again added at 1%.
(§2) To minimize the direct inhibitory action of this drug on gastric emptying/gut motility—and resultant nausea—the prodrug should not undergo premature chemical or enzymic cleavage back to the parent drug while within the gut lumen. To confirm this, the prodrugs were incubated with USP SGF (simulated gastric fluid), FeSSIF (fed state simulated intestinal fluid) and FaSSIF (fasted state simulated intestinal fluid) and remaining prodrug, and any generated active drug, assayed by use of a qualified LC-MS/MS analytical method.
as §1, with “gut,” for “gut microfloral population,”

[11] = Stability in simulated intestinal juice (FaSSIF); format: in vitro ADME; conditions: FaSSIF pH 6.5, pancreatin 1%, prodrug 20 μg/mL
Protocol: as §1
(§3) Method—Prodrug (20 μg/mL) in the FaSSIF cocktail comprising sodium taurocholate 3 mM, lecithin 0.75 mM, NaOH 8.7 mM, NaH2PO4. H2O 28.7 mM, NaCl 106 mM, pancreatin 1% (overall pH 6.5) was incubated for 2 h at 37° C. After acidifying the incubation to stop any reaction the amount of prodrug remaining and drug generated were determined using a qualified LC-MS/MS method.
as §2
as §3, with “Prodrug” for “Method—Prodrug”
as §1, with “gut,” for “gut microfloral population,”

[12] = Stability in USP simulated gastric juice; format: in vitro ADME; conditions: USP SGF pH 1.1, pepsin […], prodrug 20 μg/mL
Text: To minimize the direct inhibitory action of this drug on gastric emptying/gut motility—and resultant nausea—the prodrug should not undergo premature chemical or enzymic cleavage back to the parent drug while within the gut lumen.

[13] = male rats; for Frel: relative bioavailability of donepezil vs dosing donepezil itself, mean
Protocol: Serial tail vein blood samples were subsequently collected via an indwelling cannuala into EDTA tubes containing a stabilising cocktail (including 6 mg/mL NaF) to prevent post collection enzymic hydrolysis of the prodrug.

[14] = % of treated patients, cited from earlier work
hNav1.1 channel = target: T1, hNav1.1 channel (Homo sapiens, UniProt P35498); assay: Blockade of cloned Nav1.1 channels expressed in mammalian cells; format: cell-based
T1 construct: expressed in transfected cells
Protocol: Blockade of hNav1.1 channel was measured using a stimulus voltage pattern shown in the diagram below: Voltage potentials are indicated in Table 13. The pulse pattern was repeated twice: before and 5 minutes after TA addition and peak current amplitudes at three test pulses were measured (ITP1, TP11 and ITP12).
Data acquisition and analyses was performed using the lonWorks Quattro™ system operation software (version 2.0.2; Molecular Devices Corporation, Union City, Calif.). Data was corrected for leak current.
The tonic block was calculated as:
% Block (Tonic)=(1−ITP1,TA/ITP1,Control)×100%,
10 Hz Block—the frequency-dependent block at stimulation frequency 10 Hz was calculated as:
% Block (10 Hz)=(1−ITP11, TA/ITP11, Control))×100%,
We define the inactivation state block as decrease in test pulse (TP12) current amplitude due to the conditioning depolarizing pulse (TP11). The inactivation state block was calculated as:
% Block (inactivation state)=(1−(ITP12, TA/[…])×100%,
Concentration-response data for the blocks were fit to an equation of the following form: […]
where [Test] is the concentration of test article, IC50 is the concentration of the test article producing half-maximal inhibition, N is the Hill coefficient, and % Block is the percentage of ion channel current inhibited at each concentration of the test article. Nonlinear least squares fits were solved with the Solver add-in for Excel 2000 (Microsoft, Redmond, Wash.).

[15] = frequency-dependent block at 10 Hz (TP11), read-out: IC50 10 Hz block
[16] = inactivation state block (TP12), read-out: IC50 Inactivated state
[17] = tonic block (TP1), read-out: IC50 Tonic block

Cc1ncc([N+](=O)[O-])n1CCOC(=O)CCCC(=O)Nc1ccc(C(=O)O)cc1 [Metronidazole glutaryl PABA ester, Metronidazole-(glutaryl-PABA) ester]
MIC [1]: 8 µg/mL (≈ 19.8 µM)
MIC [2]: 16 µg/mL (≈ 39.6 µM)
MIC ([3]; ATCC29741): > 64 µg/mL
MIC ([3]; NCTC10582): > 64 µg/mL
MIC (Campylobacter jejuni): > 64 µg/mL
MIC (Campylobacter jejuni; ATCC33560): 64 µg/mL (≈ 158 µM)
MIC (Prevotella denticola): 64 µg/mL (≈ 158 µM)
MIC (Propionibacterium acnes; Cutibacterium acnes): > 64 µg/mL
MIC (Propionibacterium acnes; clinical isolate MIC clindamycin 0.5 mg/L): >64 µg/mL
MIC (Bifidobacterium dentium): > 64 µg/mL
MIC (Bacteroides fragilis): > 64 µg/mL
MIC (Bacteroides fragilis; ATCC25285): > 64 µg/mL
MIC [4]: 8 µg/mL (≈ 19.8 µM)
MIC (Helicobacter pylori; clinical isolate (first listed, r83)): 32 µg/mL (≈ 79.1 µM)
MIC (Helicobacter pylori; clinical isolate (second listed, r85)): 16 µg/mL (≈ 39.6 µM)
MIC (Veillonella parvula): > 64 µg/mL
MIC (Eggerthella lenta): 32 µg/mL (≈ 79.1 µM)
MIC [5]: 4 µg/mL (≈ 9.89 µM)
MIC (Clostridium perfringens): > 64 µg/mL
MIC (Clostridium perfringens; ATCC13124): > 64 µg/mL
MIC (Clostridium sordellii): 64 µg/mL (≈ 158 µM)
MIC [6]: 8 µg/mL (≈ 19.8 µM)
MIC (Prevotella bivia): 32 µg/mL (≈ 79.1 µM)
MIC (Clostridium bifermentans): 64 µg/mL (≈ 158 µM)
MIC (Clostridium difficile; ATCC700057, ATCC 700057): 8 µg/mL (≈ 19.8 µM)
MIC (Clostridium difficile; NCTC13366, NCTC 13366 - NAP1/027): 16 µg/mL (≈ 39.6 µM)
MIC (Clostridium difficile; antibiotic-susceptible clinical isolate): 8 µg/mL (≈ 19.8 µM)
Tmax [7]: 2.0 h
MIC (Veillonella spp.): > 64 µg/mL
MIC (Bifidobacterium longum): > 64 µg/mL
MIC (Clostridium novyi): 32 µg/mL (≈ 79.1 µM)
MIC (Veillonella atypical): > 64 µg/mL
MIC [8]: 16 µg/mL (≈ 39.6 µM)
MIC (Campylobacter coli): > 64 µg/mL
MIC (Campylobacter coli; ATCC33559): 64 µg/mL (≈ 158 µM)
MIC (Clostridium sporogenes): 8 µg/mL (≈ 19.8 µM)
MIC [9]: > 64 µg/mL

CCOC(=O)c1ccc(NC(=O)CCCC(=O)OC2=C(CC3CCN(Cc4ccccc4)CC3)Cc3cc(OC)c(OC)cc32)cc1 [Donepezil glutaryl PABA ethyl ester, donepezil[glutaryl-PABA ethyl ester]enol ester]
Simulated intestinal juice (2 h, 37° C.) (FeSSIF) % active drug generated [10]: 1%
Simulated intestinal juice (2 h, 37° C.) (FaSSIF) % active drug generated [11]: 2%
Simulated gastric juice (1 h, 37° C.) % active drug generated [12]: 2%
Prodrug plasma levels ([13]; oral): undetectable
Frel [13]: 30%

C#Cc1cccc(Nc2ncnc3cc(OCCOC)c(OCCOC)cc23)c1 [erlotinib]
incidence of diarrhoea [14]: 50-60%

CCCCN1C[C@H](O)[C@@H](O)[C@H](O)[C@H]1CO [miglustat]
incidence of diarrhoea [14]: up to 89%

CCCNCC(COc1ccccc1C(=O)CCc1ccccc1)OC(=O)CCC(=O)N[C@H](C(=O)O)C(C)C (stereo partly drawn) [Propafenone succinyl valine ester, Propafenone[succinyl-(S)-valine]ester]
IC50 (hNav1.1 channel; [15]): 69.5 µM
IC50 (hNav1.1 channel; [16]): 37.2 µM
IC50 (hNav1.1 channel; [17]): 151 µM

Cc1cn([C@H]2C=C[C@@H](CO)O2)c(=O)[nH]c1=O [Stavudine]
incidence of diarrhoea [14]: 44%
incidence of nausea and vomiting [14]: 39-44%

CCCNCC(COc1ccccc1C(=O)CCc1ccccc1)OC(=O)CCCC(=O)Nc1ccc(C(=O)O)cc1 (stereo not drawn) [Propafenone glutaryl PABA ester, Propafenone (glutaryl-PABA) ester]
IC50 (hNav1.1 channel; [15]): 96.3 µM
IC50 (hNav1.1 channel; [16]): 32.2 µM
IC50 (hNav1.1 channel; [17]): 464 µM

CCOC(=O)[C@@H](NC(=O)CCCC(=O)OC1=C(CC2CCN(Cc3ccccc3)CC2)Cc2cc(OC)c(OC)cc21)C(C)C [Donepezil glutaryl valine ethyl ester, donepezil[glutaryl-(S)-valineethyl ester]enol ester]
Simulated intestinal juice (2 h, 37° C.) (FeSSIF) % active drug generated [10]: 3%
Simulated intestinal juice (2 h, 37° C.) (FaSSIF) % active drug generated [11]: 11%
Simulated gastric juice (1 h, 37° C.) % active drug generated [12]: 2%
plasma persistence of donepezil ([13]; oral): not in evidence
Frel [13]: 31%

CC(C)CN(C[C@@H](O)[C@H](Cc1ccccc1)NC(=O)O[C@H]1CCOC1)S(=O)(=O)c1ccc(N)cc1 [amprenavir]
incidence of diarrhoea [14]: 39%
incidence of nausea [14]: 74%
incidence of vomiting [14]: 34%

COc1ccc(C(CN(C)C)C2(O)CCCCC2)cc1 (stereo not drawn) [venlefaxine, venlafaxine]
incidence of nausea [14]: Up to 30%

Cc1ccc(Nc2nccc(N(C)c3ccc4c(C)n(C)nc4c3)n2)cc1S(N)(=O)=O [pazopanib]
incidence of diarrhoea [14]: ~50%
incidence of diarrhoea ([14]; listed as pazapanib): > 50%
